BindingDB's records for PubMed 3806397 (University of Arizona, 1987)
pKi: −log10 of the molar value. Where “and” joins values, the source holds several entries; their conditions need not be identical. Equal values may be shown once.

Target: Beta-arrestin-1 (Oryctolagus cuniculus, UniProt Q95223)
Sequence (Q95223 whole entry): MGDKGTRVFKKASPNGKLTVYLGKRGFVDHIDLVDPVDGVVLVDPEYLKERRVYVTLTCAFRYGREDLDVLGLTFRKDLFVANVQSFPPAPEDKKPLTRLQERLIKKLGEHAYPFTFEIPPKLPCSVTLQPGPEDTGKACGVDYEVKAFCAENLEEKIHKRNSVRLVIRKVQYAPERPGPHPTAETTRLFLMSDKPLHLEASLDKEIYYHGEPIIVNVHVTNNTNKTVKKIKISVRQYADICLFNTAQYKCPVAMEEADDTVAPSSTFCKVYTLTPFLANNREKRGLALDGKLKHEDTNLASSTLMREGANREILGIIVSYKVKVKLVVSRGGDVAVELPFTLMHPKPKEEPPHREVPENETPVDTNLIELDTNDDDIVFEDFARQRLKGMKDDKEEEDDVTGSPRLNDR

Row | Structure (SMILES) | pKi
1 | CC(=O)OCC[N+](C)(C)C [2-acetoxyethyl(trimethyl)ammonium;perchlorate] | 5.49
2 | O=C1CCCN1CC#CCN1CCCC1 [1-[4-(2-oxo-pyrrolidin-1-yl)-but-2-ynyl]-pyrrolidinium] | 6.67 and 5.81
3 | C[N+](C)(C)CCOC(N)=O [(2-Hydroxyethyl)trimethyl ammonium chloride carbamate] | 5.78 and < 5.00
